Source: patent US8658668B2, “PI3 kinase/mTOR dual inhibitor” (Eli Lilly and Company, priority 2011, dated 2014)

Assays:
[1] = tested on: S6RP(pS240/242); test: Phosphorylated S6RP in U87MG cells; format: cell-based; settings: Homo sapiens, U-87 MG, n = 3, read-out: S6RP(pS240/242) Absolute IC50
Protocol: This homogeneous assay format uses immuno-sandwich capture of the phosphorylated analyte and then detection with antibody-coated Alphascreen beads to generate an amplified signal.
Maintain U87MG cells in U87MG growth medium consisting of DMEM (GIBCO 11965-092) supplemented with 10% fetal bovine serum (FBS, GIBCO, 10091-141), 1% nonessential amino acids (GIBCO, 11140-050) and 1% sodium pyruvate (GIBCO, 11360-070). Harvest cells using standard cell culture procedures and then count using Vi-Cell. Plate 100 μL of U87MG cells in growth medium (50,000 cells/well) into Costar #3596 96 well plates and incubate overnight at 37° C., 5% CO2.
Incubate for one h at 37° C., then remove the medium and add 50 μL of 1× SureFire Lysis Buffer (TGR Biosciences SureFire® Kit component) to each well and incubate at room temperature for 10 min with gentle shaking Transfer 6 μL lysate and 10 μL reaction mixture (60 parts reaction buffer/10 parts activation buffer/1 part each of donor and acceptor beads, Perkin Elmer, 6760617R) to a 384 well proxiplate (Perkin Elmer, 6006280) for the p-p70S6 kinase (Thr389) and p-AKT(Ser473) assays. Seal the plate and incubate at RT for 4 h. […] Read the plates on a Perkin Elmer EnVision equipped with a TurboModule using standard AlphaScreen® settings (Ex680 nm and Em520-620 nm). […]

[2] = tested on: CXF 1103 human tumor xenograft cells; test: Oncotest tumor clonogenic assay, CXF 1103; format: cell-based; settings: CXF1103, colony formation, Colon CXF 1103, adeno carcinoma, pd, read-out: Absolute IC50
[3] = tested on: CXF 1729 human tumor xenograft cells; test: Oncotest tumor clonogenic assay, CXF 1729; format: cell-based; settings: colony formation, Colon CXF 1729, adeno carcinoma, wd, read-out: Absolute IC50
[4] = tested on: CXF 676 human tumor xenograft cells; test: Oncotest tumor clonogenic assay, CXF 676; format: cell-based; settings: colony formation, Colon CXF 676, adeno carcinoma, md, read-out: Absolute IC50
[5] = tested on: CXF 975 human tumor xenograft cells; test: Oncotest tumor clonogenic assay, CXF 975; format: cell-based; settings: colony formation, Colon CXF 975, adeno carcinoma, md, read-out: Absolute IC50
[6] = tested on: MAXF 1384 human tumor xenograft cells; test: Oncotest tumor clonogenic assay, MAXF 1384; format: cell-based; settings: colony formation, Mammary MAXF 1384, adeno carcinoma, pd, read-out: Absolute IC50
[7] = tested on: SXF 1186 human tumor xenograft cells; test: Oncotest tumor clonogenic assay, SXF 1186; format: cell-based; settings: colony formation, Sarcoma SXF 1186, osteoblastic osteosarcoma, md, read-out: Absolute IC50
[8] = tested on: pS473 AKT; test: In vivo target inhibition in U87MG tumors, pS473 AKT; settings: Mus musculus, U-87 MG; for inhibition at 0.5 mg/kg: 0.5 mg/kg oral; for inhibition at 1.5 mg/kg: 1.5 mg/kg oral; for inhibition at 3 mg/kg: 3 mg/kg oral; for inhibition at 6 mg/kg: 6 mg/kg oral; for inhibition at 10 mg/kg: 10 mg/kg oral; for inhibition at 12 mg/kg: 12 mg/kg oral
Protocol: Implant U87MG human glioblastoma cells (5×10^6) subcutaneously into the flank of athymic nude mice in 0.2 mL of matrigel. Ten days post-implantation, dose mice orally according to a time course, single dose/single time point, or dose response protocol for the determination of TMED50 (threshold minimum effective dose). Flash freeze tumors at harvest and collect blood for the determination of parent compound plasma exposure and the calculation of TMEC50 (threshold minimum effective concentration) in the case of dose response studies. Homogenize tumors in 500 μL of XY Lysis Buffer (10 μg/mL Leupeptin, 10 μg/mL Trypsin-Chymotrypsin Inhibitor, 10 μg/mL Tosyl phenyl-alanyl chloromethyl ketone, 10 μg/mL Aprotinin, 60 mM Beta-Glycerol Phosphate, 1% Triton X100, 25 mM Tris pH 7.5, 2.5 mM Pyrophosphate, 150 mM NaCl, 2 mM p-tosyl-L-arginine methyl ester, 15 mM para-nitrophenyl phosphate, 5 mM benzamidine, 1 mM sodium vanadate, 10 mM sodium fluoride, 50 μg/mL phenyl-methane sulfonyl fluoride, 1 mM 1,4-dithiothreitol (DTT), 15 mM EDTA pH 8.0, 5 mM EGTA pH 8.0, 1 μM Microcystin, 1 μM Okadaic Acid, and 1 Roche Complete protease inhibitor mini-tablet per 10 mL) using RNase Free Pellet Pestle (Kimble-Kontes). Aliquot lysates and either assay immediately or store at −80° C. for later testing. Use the multiplex format of Meso Scale Discovery (Gaithersburg, Md.) ELISA technology and measure in vivo target inhibition of PI3K and mTOR to assess effects on phosphorylation of the threonine 308 site of AKT, a downstream effector of PI3K; phosphorylation on the threonine 389 site of p70 S6K and on the serine 240/244 site of S6RP, downstream effectors of mTORC1; phosphorylation of the serine 473 site of AKT, a downstream effector of mTORC2. Add 20 μg of lysate to carbon electrode containing 96-well plates pre-spotted with the appropriate capture antibodies. Probe the protein of interest using a ruthenium labeled detection antibody. Pass current over the electrode in the presence of read buffer containing the co-reactant TPA, and quantitate and record the light generated by electro-chemiluminescence with the MSD Sector 6000 instrument. Calculate percent inhibitions relative to the vehicle control group and perform ANOVA analysis using the JMP software package for the determination of statistical significance.

CO[C@@H](C)Cn1c(=O)n(C)c2cnc3ccc(-c4cncc(C(C)(C)O)c4)cc3c21 [Example 1, 8-[5-(1-Hydroxy-1-methylethyl)pyridin-3-yl]-1-[(2S)-2-methoxypropyl]-3-methyl-1,3-dihydro-2H-imidazo[4,5-c]quinolin-2-one]
IC50 [1]: 19.1 nM | IC50 [2]: > 200 nM | IC50 [3]: 176 nM | IC50 [4]: 350 nM | IC50 [5]: 142 nM | IC50 [6]: 243 nM | IC50 [7]: 110 nM | inhibition at 0.5 mg/kg ([8]; 0.5 hr post dose): -9% | inhibition at 0.5 mg/kg ([8]; 4 hr post dose): -28% | inhibition at 1.5 mg/kg ([8]; 0.5 hr post dose): 34% | inhibition at 1.5 mg/kg ([8]; 4 hr post dose): -12% | inhibition at 3 mg/kg ([8]; 0.25 hr post dose): 23% | inhibition at 3 mg/kg ([8]; 0.5 hr post dose): 63% | inhibition at 3 mg/kg ([8]; 1 hr post dose): 12% | inhibition at 3 mg/kg ([8]; 3 hr post dose): -7% | inhibition at 3 mg/kg ([8]; 4 hr post dose): -3% | inhibition at 6 mg/kg ([8]; 0.25 hr post dose): 63% | inhibition at 6 mg/kg ([8]; 0.5 hr post dose): 77% | inhibition at 6 mg/kg ([8]; 1 hr post dose): 67% | inhibition at 6 mg/kg ([8]; 2 hr post dose): 51% | inhibition at 6 mg/kg ([8]; 4 hr post dose): -5% | inhibition at 6 mg/kg ([8]; 6 hr post dose): -8% | inhibition at 6 mg/kg ([8]; 12 hr post dose): -6% | inhibition at 10 mg/kg ([8]; 0.5 hr post dose): 90% | inhibition at 10 mg/kg ([8]; 1 hr post dose): 73% | inhibition at 10 mg/kg ([8]; 2 hr post dose): 66% | inhibition at 10 mg/kg ([8]; 4 hr post dose): 56% | inhibition at 10 mg/kg ([8]; 8 hr post dose): 13% | inhibition at 12 mg/kg ([8]; 0.5 hr post dose): 91% | inhibition at 12 mg/kg ([8]; 4 hr post dose): 44%
